The values below come from ChEMBL document CHEMBL4483862, “Open-source discovery of chemical leads for next-generation chemoprotective antimalarials” (2018).

pIC50: −log10 of the molar value. Where only a bound is given, the exact number is not on record here.

The test has as its system Plasmodium berghei. The test can be described thus: Luciferase/luciferin-expressing antifolate-resistant parasites were used to infect a culture of HepG2 cells that were pre-incubated with compounds. Infected hepatocytes emit light due to the luciferase reaction. Assay results are presented as the percent inhibition of light emission compared to control. […]. As to conditions: sporozoite; for IC90: read-out: LUCIFERASE INFECTION ASSAY - IC90. Format: functional.

With `COc1ccc(-c2cc(NC=O)c3ncc(-c4ccc(OC)c(OC)c4)n3c2)c(OC)c1`, the IC90 was found to be 0.0326 µM. The pIC50 (HEPG2TOX_HILL_SLOPE 0.668, HEPG2TOX_R_SQUARED 0.811, PBLUC_HILL_SLOPE 48.6, PBLUC_R_SQUARED 0.635, read-out: LUCIFERASE INFECTION ASSAY - IC50) was 7.51.

Consider `Cc1cc(C)n(-c2ccc3c(Cl)cc(Cl)c(O)c3n2)n1`, for which the IC90 stood at 0.393 µM. The pIC50 (HEPG2TOX_HILL_SLOPE 0.646, HEPG2TOX_R_SQUARED 0.957, PBLUC_HILL_SLOPE 194, PBLUC_R_SQUARED 0.635, read-out: LUCIFERASE INFECTION ASSAY - IC50) was 6.41.

As for `Oc1cccc(-c2cnc3cnc(-c4ccc(Cl)cc4)cn23)c1`, the IC90 was greater than 10.3 µM. Under “HEPG2TOX_HILL_SLOPE 0.659, HEPG2TOX_R_SQUARED 0.949, PBLUC_HILL_SLOPE 0.784, PBLUC_R_SQUARED 0.857, read-out: LUCIFERASE INFECTION ASSAY - IC50”, the pIC50 is 5.81.

Consider `COc1ccc(-c2cc(CN3C(=O)N(C)C4(CCCCC4)C3=O)on2)cc1`, for which the IC90 is greater than 10 µM. The pIC50 (HEPG2TOX_HILL_SLOPE 0.667, HEPG2TOX_R_SQUARED 0.327, read-out: LUCIFERASE INFECTION ASSAY - IC50) is less than 5.00.

As to `OC(CSc1nnc(CNc2cccc(C(F)(F)F)c2)n1C1CCCCC1)c1ccccc1` (stereo not drawn), the IC90 is greater than 10 µM. Also, where the note is “HEPG2TOX_HILL_SLOPE 0.64, HEPG2TOX_R_SQUARED 0.795, PBLUC_HILL_SLOPE 0.508, PBLUC_R_SQUARED 0.492, read-out: LUCIFERASE INFECTION ASSAY - IC50”, the pIC50 is 5.95.

In the case of `COc1ccc(-c2ccc3ncc(-c4ccc(NC(C)=O)cc4)n3n2)cc1OC`, the IC90 was determined as 0.053 µM. For the setting “HEPG2TOX_HILL_SLOPE 0.646, HEPG2TOX_R_SQUARED 0.97, PBLUC_HILL_SLOPE 3.16, PBLUC_R_SQUARED 0.759, read-out: LUCIFERASE INFECTION ASSAY - IC50”, the pIC50 is 7.58.

As for `Nc1ncnc(N/N=C/c2c(O)ccc3ccccc23)c1[N+](=O)[O-]`, the IC90 is greater than 10 µM. Moreover, the pIC50 (HEPG2TOX_HILL_SLOPE 0.612, HEPG2TOX_R_SQUARED 0.82, read-out: LUCIFERASE INFECTION ASSAY - IC50) was less than 5.00.

As for `O=C(Cn1cnc2sccc2c1=O)c1ccc(C2CCCCC2)cc1`, the concentration for an effect of 90% (IC90) was greater than 10 µM. Besides, the pIC50 (HEPG2TOX_HILL_SLOPE 0.627, HEPG2TOX_R_SQUARED 0.608, PBLUC_HILL_SLOPE 1.31, PBLUC_R_SQUARED 0.795, read-out: LUCIFERASE INFECTION ASSAY - IC50) is 5.59.

Consider `CCOc1cccc(-c2cn3c(-c4ccc5c(ccn5C)c4)cnc3cn2)c1`, for which the IC90 was determined as 0.0637 µM. In addition, the pIC50 (HEPG2TOX_HILL_SLOPE 0.658, HEPG2TOX_R_SQUARED 0.817, PBLUC_HILL_SLOPE 2.41, PBLUC_R_SQUARED 0.611, read-out: LUCIFERASE INFECTION ASSAY - IC50) is 7.59.

With `O=C1CCCN1c1ccc(CNc2ccccc2S(=O)(=O)C(F)(F)F)cc1`, the IC90 was greater than 10 µM. Besides, for the setting “HEPG2TOX_HILL_SLOPE 0.628, HEPG2TOX_R_SQUARED 0.884, read-out: LUCIFERASE INFECTION ASSAY - IC50”, the pIC50 is less than 5.00.

Regarding `Fc1ccc(-c2csc3ncnc(NCc4ccc(CN5CCOCC5)cc4)c23)cc1`, the IC90 worked out at 7.44 µM. The pIC50 (HEPG2TOX_HILL_SLOPE 0.615, HEPG2TOX_R_SQUARED 0.878, PBLUC_HILL_SLOPE 1.43, PBLUC_R_SQUARED 0.575, read-out: LUCIFERASE INFECTION ASSAY - IC50) was 5.80.

Consider `COc1ccc(-c2cnc3cnc(-c4ccccc4N(C)C)cn23)cc1`, for which the IC90 was determined as 0.409 µM. In addition, the pIC50 (HEPG2TOX_HILL_SLOPE 0.622, HEPG2TOX_R_SQUARED 0.863, PBLUC_HILL_SLOPE 8.14, PBLUC_R_SQUARED 0.832, read-out: LUCIFERASE INFECTION ASSAY - IC50) is 6.51.

Consider `O=[N+]([O-])c1ccccc1/C=N/n1c(-c2ccc(Cl)cc2)cs/c1=N\CC1CCCO1` (stereo not drawn), for which the IC90 is 7.09 µM. In addition, the pIC50 (HEPG2TOX_HILL_SLOPE 0.61, HEPG2TOX_R_SQUARED 0.914, PBLUC_HILL_SLOPE 1.45, PBLUC_R_SQUARED 0.571, read-out: LUCIFERASE INFECTION ASSAY - IC50) was 5.81.

Take `C=CCn1c(SCc2c(C)noc2C)nc2scc(C3CC3)c2c1=O`: the IC90 came to 0.0519 µM. Moreover, the pIC50 (HEPG2TOX_HILL_SLOPE 0.626, HEPG2TOX_R_SQUARED 0.778, PBLUC_HILL_SLOPE 13, PBLUC_R_SQUARED 0.397, read-out: LUCIFERASE INFECTION ASSAY - IC50) was 7.36.

Turning to `Cc1cc(C(=O)CSc2nc3ccccc3[nH]2)c(C)n1-c1ccc(F)cc1`, the IC90 amounted to 0.513 µM. The pIC50 (HEPG2TOX_HILL_SLOPE 0.596, HEPG2TOX_R_SQUARED 0.924, PBLUC_HILL_SLOPE 3.63, PBLUC_R_SQUARED 0.908, read-out: LUCIFERASE INFECTION ASSAY - IC50) was 6.55.

For `COc1cc(/C=N/NC(=O)c2cc(C)n(-c3ccccc3)c2C)ccc1OCC(=O)Nc1c(C)cc(C)cc1C`, the IC90 amounted to 8.35 µM. For the same molecule, the pIC50 (HEPG2TOX_HILL_SLOPE 0.635, HEPG2TOX_R_SQUARED 0.731, PBLUC_HILL_SLOPE 5.43, PBLUC_R_SQUARED 0.0161, read-out: LUCIFERASE INFECTION ASSAY - IC50) was 5.25.

As to `Cc1cc(C(=O)/C(C#N)=N/Nc2ccc(Cl)cc2)n(C(C)(C)C)n1`, the IC90 came to 7.21 µM. Further, under “HEPG2TOX_HILL_SLOPE 0.671, HEPG2TOX_R_SQUARED 0.767, PBLUC_HILL_SLOPE 2.12, PBLUC_R_SQUARED 0.724, read-out: LUCIFERASE INFECTION ASSAY - IC50”, the pIC50 is 5.59.

In the case of `CSc1ccc(C=C2C(=O)OC(C)(C)OC2=O)s1`, the IC90 is greater than 11.6 µM. Moreover, the pIC50 (HEPG2TOX_HILL_SLOPE 0.602, HEPG2TOX_R_SQUARED 0.801, PBLUC_HILL_SLOPE 0.853, PBLUC_R_SQUARED 0.0835, read-out: LUCIFERASE INFECTION ASSAY - IC50) was less than 4.94.

On to `Fc1cccc(-c2cnc3sc(NCCc4ccncc4)nn23)c1`, for which the IC90 is greater than 9.72 µM. Besides, for the setting “HEPG2TOX_HILL_SLOPE 0.66, HEPG2TOX_R_SQUARED 0.128, read-out: LUCIFERASE INFECTION ASSAY - IC50”, the pIC50 is less than 5.01.

With `Cc1cc(Cl)n2ncc(-c3ccc(F)cc3)c2n1`, the IC90 worked out at 12.3 µM. For the same molecule, the pIC50 (HEPG2TOX_HILL_SLOPE 0.63, HEPG2TOX_R_SQUARED 0.416, PBLUC_HILL_SLOPE 2.81, PBLUC_R_SQUARED 0.71, read-out: LUCIFERASE INFECTION ASSAY - IC50) is 5.25.

`CNS(=O)(=O)c1cccc(C(=O)Nc2ccc(Cl)c(C(F)(F)F)c2)c1`: the IC90 is greater than 10 µM. The pIC50 (HEPG2TOX_HILL_SLOPE 0.613, HEPG2TOX_R_SQUARED 0.555, PBLUC_HILL_SLOPE 3.22, PBLUC_R_SQUARED 0.568, read-out: LUCIFERASE INFECTION ASSAY - IC50) is 5.14.

As for `COc1ccc(CNc2ncnc3scc(-c4ccccc4)c23)cc1OC`, the IC90 is 9.56 µM. The pIC50 (HEPG2TOX_HILL_SLOPE 0.633, HEPG2TOX_R_SQUARED 0.925, PBLUC_HILL_SLOPE 1.59, PBLUC_R_SQUARED 0.666, read-out: LUCIFERASE INFECTION ASSAY - IC50) is 5.62.

Turning to `Cc1ccccc1C(Sc1nnc(-c2ccc[nH]2)o1)c1ccccc1` (stereo not drawn), the IC90 was greater than 10 µM. Besides, the negative-log IC50 (pIC50) (HEPG2TOX_HILL_SLOPE 0.627, HEPG2TOX_R_SQUARED 0.488, read-out: LUCIFERASE INFECTION ASSAY - IC50) is less than 5.00.

`CNc1snc(C)c1C(=O)NC(C)c1ccc(C(C)C)cc1` (stereo not drawn): the IC90 is 2.91 µM. Moreover, the pIC50 (HEPG2TOX_HILL_SLOPE 0.648, HEPG2TOX_R_SQUARED 0.871, PBLUC_HILL_SLOPE 1.92, PBLUC_R_SQUARED 0.818, read-out: LUCIFERASE INFECTION ASSAY - IC50) was 6.03.

Turning to `O=C(CSc1nnc(-c2ccccc2)o1)Nc1ncc(Cl)cc1Cl`, the IC90 is 1.2 µM. For the setting “HEPG2TOX_HILL_SLOPE 0.667, HEPG2TOX_R_SQUARED 0.783, PBLUC_HILL_SLOPE 16.1, PBLUC_R_SQUARED 0.672, read-out: LUCIFERASE INFECTION ASSAY - IC50”, the pIC50 was 5.98.

In the case of `CC(C)NS(=O)(=O)c1cccc(CNc2ncnc3ccccc23)c1`, the IC90 came out at 2.34 µM. Besides, the negative-log IC50 (pIC50) (HEPG2TOX_HILL_SLOPE 0.638, HEPG2TOX_R_SQUARED 0.943, PBLUC_HILL_SLOPE 2.45, PBLUC_R_SQUARED 0.694, read-out: LUCIFERASE INFECTION ASSAY - IC50) was 6.02.

Turning to `CC(=O)Nc1ccc(-c2ccc3ncc(-c4ccc(CO)cc4)n3n2)cc1`, the IC90 is greater than 10 µM. The pIC50 (HEPG2TOX_HILL_SLOPE 0.612, HEPG2TOX_R_SQUARED 0.859, PBLUC_HILL_SLOPE 1.16, PBLUC_R_SQUARED 0.655, read-out: LUCIFERASE INFECTION ASSAY - IC50) was 5.72.

Take `Cc1ccc(-n2ncc(C(=O)Nc3ccncc3)c2C2CC2)cc1Cl`: the IC90 amounted to 7.69 µM. Moreover, the pIC50 (HEPG2TOX_HILL_SLOPE 0.617, HEPG2TOX_R_SQUARED 0.925, PBLUC_HILL_SLOPE 1.2, PBLUC_R_SQUARED 0.513, read-out: LUCIFERASE INFECTION ASSAY - IC50) was 5.91.

For `CCOc1cccc(C2Nc3ccccc3C(=O)N2C2CC2)c1O` (stereo not drawn), the IC90 amounted to 9.55 µM. Further, the pIC50 (HEPG2TOX_HILL_SLOPE 0.644, HEPG2TOX_R_SQUARED 0.857, PBLUC_HILL_SLOPE 2.2, PBLUC_R_SQUARED 0.323, read-out: LUCIFERASE INFECTION ASSAY - IC50) is 5.45.
